Source: patent US20090149536A1, “4-OXO-(ISO)TRETINOIN FOR THE TOPICAL TREATMENT OF SEVERE DERMATOLOGICAL DISORDERS” (priority 2005, published 2009)
Like-named read-outs stand apart in the source and are kept apart here.

Key:
[1] = in vivo
Description: Suitable dosages are described herein below and can be determined by a doctor based on usual parameters like e.g. the weight and age of the patient, and the current status of the disease.

sebaceous gland size = experiment: study of sebaceous gland size in skin biopsies (histology); format: in vivo, Fuzzy rats; conditions: D25
Description: The other biopsies were transferred in fixative solution of 4% Paraformaldehyde Fixative (PAF; Ref. 1.04003.5000, Merck, France) solution for further paraffin-embedding and sebaceous gland size analysis.
The size of sebaceous gland was evaluated by histological study of biopsies.
Biopsies fixed in PAF 4% were paraffin-embedded by the ASP 300 (Leica) automat according to the following procedure:
Histological sections of biopsies were realized (5 sections/biopsy).
Each one was colored by Hemalun/Eosin/Safran OTTIX coloration method according to the following protocol:
A microscopic observation by using a CKX41 light microscope (Olympus, France) was performed. Each sebaceous gland within 1 section/biopsy was numerized with a digital camera (Pwershot A80, Canon) and was measured by using ImageJ software 1.32j.
Each sebaceous gland within 1 section/biopsy was numerized with a digital camera (Pwershot A80, Canon) and was measured by using ImageJ software 1.32j. The mean of gland size was calculated for each group.
At the end of treatment (D25; Oct. 13, 2006), rats were anaesthetized, skin biopsies were collected and embedded in paraffin before being stained by an hematoxylin/eosin solution. Biopsies were then observed and numerized by using a microscope. All sebaceous glands within a biopsy were measured.

skin [2] = tested on: skin
Description: Observations and examinations included clinical monitoring of skin reaction and histopathological examination of excised skin specimen at study end.

[3] = topical 1.5% 4-oxo-tretinoin or 2% 4-oxo-isotretinoin, n=5 per compound, serial samples
sebum excretion rate = conditions: cited from earlier work
lipogenesis in epidermis = experiment: study of lipogenesis in skin biopsies (14C-Dextrose integrated in epidermis lipids); format: in vivo, Fuzzy rats
Description: At the end of the treatment, animals were anaesthetized with Pentobarbital 70 mg/kg by IP route. For each rat, two biopsies of 3-mm of dorsal skin per treated region with test substances were collected. Each biopsy was weighed. Rats were sacrificed by inhalation of CO2.
The biopsies (from 175 to 466 mg) were incubated in 1 ml of KRB in presence of 5 μCi D-[U-^14C]-Dextrose/ml at 37° C., 5% CO2 for 3 h.
After incubation, biopsies were rinsed 3 times with 3 ml of KRB. Dermis and epidermis were separated according to method described by Levang A. K. et al..
So, skin biopsies were soaked in water at 60° C. for 45 s. The skin was then removed and blotted dry and pinned with the dermal skin side down. The epidermis and dermis were separated by scrapping and epidermis was weighted.
Each fraction (100 mg) epidermis was cut into small fragments by using scalpels. Fragments were homogenized with chloroform:methanol [(2:1; v:v), Ref. C2432, batch No. 055K0070, Sigma, France: Ref M3641-1L, batch No. 104K3641, Sigma, France] according to the ratio 50 mg of tissue/ml of chloroform:methanol (2:1; v:v) with Potter-Elvehjem type of homogenizer (Ref. 48780, Dutscher, France).
Then, the mixture was washed with 0.2 volume of water. Two phases were separated by centrifugation during 20 min at 800 g.
The rate of lipid extraction was calculated as following: • R=(dpm[4-14C]Cholesterol after extraction)/dpm[4-14C]Cholesterol before extraction×100
The lipogenesis was evaluated as the number of dpm/100 mg tissue. • Lipogenesis=cpm×R×AS (D-[U-^14C]-Dextrose)
At the end of treatment (D25), rats were anaesthetized, skin biopsies were collected and lipogenesis was assessed. Briefly, biopsies were incubated with ^14C-Dextrose in Krebs-Ringer buffer for 3 h at 37° C., 5% CO2. After separation of dermis and epidermis, total lipids were extracted from epidermis. Radioactivity was counted using a β-counter.

[4] = tested on: severe acne on back or chest; conditions: 2 g cream, 0.5% 4-Oxotretinoin or up to 1% 4-Oxo-Isotretinoin, topical on back, 4 weeks minimum; Leeds grade 5 to 8
Description: Fifteen male patients aged between 18 and 65 with severe acne on back or chest rated a grade of 5 to 8 according to the Leeds revised acne grading system (Journal of Dermatological Treatment (1989) 9, 215-220) are enrolled in a pilot study.
After completion of the treatment, the grade of the acne in the designated treatment area is once more determined and compared with the surrounding area of the skin.

[5] = tested on: dermal lipogenese and sebum production; conditions: topical; cited from earlier work
hairless ("fuzzy") rats = conditions: nontoxic dosages (no body weight loss), cited from earlier work
hairless mice = conditions: nontoxic dosages (no body weight loss); cited from earlier work
[6] = tested on: sebaceous gland size and sebum production; conditions: topical versus oral; cited from earlier work
skin [7] = conditions: in human, applied topically as cream; cited from earlier work
severe acne = conditions: oral; cited from earlier work
[8] = 0.1% topical, 0.025 mg/2 cm^2, (Q1DX5)×4 weeks
[9] = 0.1% topical, 0.025 mg/2 cm^2, (Q1DX5)×4 weeks, D25
[10] = 0.5% topical, 0.125 mg/2 cm^2, (Q1DX5)×4 weeks, D25
[11] = 0.2% topical, 0.050 mg/2 cm^2, (Q1DX5)×4 weeks, D25
[12] = 10 mg/kg PO, (Q1DX5)×4 weeks, D25

Structure (SMILES): CC1=C(/C=C/C(C)=C/C=C/C(C)=C\C(=O)O)C(C)(C)CCC1=O [4-oxo-isotretinoin, 4-oxo-13-cis-retinoic acid]
- endogenous plasma level [1]: about 4.85±3.89 ng/mL
- mean sebaceous gland size, Mean ± SD (sebaceous gland size; [8]): 24988±15931 pixel^2
- sebaceous gland size, percent of control group (sebaceous gland size; [8]): (82%)
- mean sebaceous gland size, Mean ± SD (sebaceous gland size; 0.1% topical, 0.025 mg/2 cm^2, (Q1DX5)×4 weeks, listed as 4-Oxo-isotretinoin): 24998 ± 15931 pixel^2
- skin irritation (clinical monitoring of skin reaction) (skin [2]; any concentration (0.1, 0.5, 1 or 2%), once daily, 5 days per week, 4 weeks, acetone/ethanol (1:1)): No signs of skin irritation
- inter-conversion of the 4-oxo isomers: skin and strip levels of both isomers [3]: skin exposure to both 4-oxo-isotretinoin and 4-oxo-tretinoin could be demonstrated
- sebum excretion rate (sebum excretion rate; applied orally): reduces the sebum excretion rate
- pharmacological activity relative to parent drug isotretinoin (sebum excretion rate; in vivo): only half as active pharmacologically
- Mean DPM ± SD, Epidermis (100 mg) (lipogenesis in epidermis; [9]): 5499 ± 2599 DPM
- Mean pmole 14C-dextrose ± SD integrated in 100 mg of tissue (epidermis) (lipogenesis in epidermis; [9]): 6.95±3.31 pmole of 14C-Dextrose/100 mg
- lipogenesis in epidermis, percent of control group (lipogenesis in epidermis; [9]): 71%
- Mean pmole 14C-dextrose ± SD integrated in 100 mg of tissue (epidermis) (lipogenesis in epidermis; 0.1% topical, 0.025 mg/2 cm^2, (Q1DX5)×4 weeks, D25, listed as 4-Oxo-isotretinoin): 6.95 ± 3.31 pmole of 14C-Dextrose/100 mg
- Mean DPM ± SD, Epidermis (100 mg) (lipogenesis in epidermis; [10]): 6524 ± 1792 DPM
- Mean pmole 14C-dextrose ± SD integrated in 100 mg of tissue (epidermis) (lipogenesis in epidermis; [10]): 8.25±2.28 pmole of 14C-Dextrose/100 mg
- lipogenesis in epidermis, percent of control group (lipogenesis in epidermis; [10]): 84%
- Mean pmole 14C-dextrose ± SD integrated in 100 mg of tissue (epidermis) (lipogenesis in epidermis; 0.5% topical, 0.125 mg/2 cm^2, (Q1DX5)×4 weeks, D25, listed as 4-Oxo-isotretinoin): 8.25 ± 2.28 pmole of 14C-Dextrose/100 mg
- clinical rating of the acne in the treated area compared with untreated skin [4]: reduces the clinical rating of the acne in the treated area significantly

Structure (SMILES): CC1=C(/C=C/C(C)=C/C=C/C(C)=C/C(=O)O)C(C)(C)CCC1=O [4-oxo-tretinoin, 4-oxo-all-trans-retinoic acid]
- endogenous plasma level [1]: about 9.88±7.57 ng/mL
- histopathological examination of treated skin areas (skin [2]; concentration-dependent, once daily, 5 days per week, 4 weeks): concentration-dependent hyperkeratosis, acanthosis and hypertrophy/hyperplasia of sebaceous glands
- skin irritation (clinical: reddening (erythema) and occasional scaling) (skin [2]; concentrations ≧0.5% (tested 0.1 to 1.5%), once daily, 5 days per week, 4 weeks): dose-dependent slight to moderate skin irritation
- histopathological examination of treated skin areas: necrosis (skin [2]; concentrations ≧1%): occasional necrosis
- inter-conversion of the 4-oxo isomers: skin and strip levels of both isomers [3]: skin exposure to both 4-oxo-isotretinoin and 4-oxo-tretinoin could be demonstrated
- Mean DPM ± SD, Epidermis (100 mg) (lipogenesis in epidermis; [9]): 7024 ± 1970 DPM
- Mean pmole 14C-dextrose ± SD integrated in 100 mg of tissue (epidermis) (lipogenesis in epidermis; [9]): 9.10±5.23 pmole of 14C-Dextrose/100 mg
- lipogenesis in epidermis, percent of control group (lipogenesis in epidermis; [9]): 91%
- Mean pmole 14C-dextrose ± SD integrated in 100 mg of tissue (epidermis) (lipogenesis in epidermis; 0.1% topical, 0.025 mg/2 cm^2, (Q1DX5)×4 weeks, D25, listed as 4-Oxo-tretinoin): 8.89 ± 2.51 pmole of 14C-Dextrose/100 mg
- Mean DPM ± SD, Epidermis (100 mg) (lipogenesis in epidermis; [11]): 4993 ± 2219 DPM
- Mean pmole 14C-dextrose ± SD integrated in 100 mg of tissue (epidermis) (lipogenesis in epidermis; [11]): 6.30±2.80 pmole of 14C-Dextrose/100 mg
- lipogenesis in epidermis, percent of control group (lipogenesis in epidermis; [11]): 64%
- Mean pmole 14C-dextrose ± SD integrated in 100 mg of tissue (epidermis) (lipogenesis in epidermis; 0.2% topical, 0.050 mg/2 cm^2, (Q1DX5)×4 weeks, D25, listed as 4-Oxo-tretinoin): 6.30 ± 2.80 pmole of 14C-Dextrose/100 mg
- clinical rating of the acne in the treated area compared with untreated skin [4]: reduces the clinical rating of the acne in the treated area significantly

Structure (SMILES): CC1=C(/C=C/C(C)=C/C=C/C(C)=C\C(=O)O)C(C)(C)CCC1 [13-cis-RA, 13-cis retinoic acid, reference compound]
- influence on the dermal lipogenese and sebum production [5]: Neither topical tretinoin nor topical isotretinoin have been found to have an influence
- sebosuppressive effect after topical administration (hairless ("fuzzy") rats; listed as 13-cis retinoic acid): no detectable sebosuppressive effects
- sebosuppressive effect after topical administration (hairless ("fuzzy") rats; listed as 13-cis-retinoic acid): substantially no detectable sebosuppressive activity
- mean sebaceous gland size, Mean ± SD (sebaceous gland size; 10 mg/kg PO, (Q1DX5)×4 weeks): 25493±17065 pixel^2
- activity at 10 mg/kg (sebaceous gland size; Rattus norvegicus, 672 h, 10 mg/kg PO, (Q1DX5)×4 weeks, read-out: sebaceous gland size, percent of control group): 83.8%
- sebosuppressive effect after topical administration (hairless mice): no detectable sebosuppressive effects
- reduction of effectiveness in reducing sebaceous gland size and suppressing sebum production, topical compared to oral administration [6]: up to 90%
- Mean DPM ± SD, Epidermis (100 mg) (lipogenesis in epidermis; [12]): 5188 ± 1875 DPM
- Mean pmole 14C-dextrose ± SD integrated in 100 mg of tissue (epidermis) (lipogenesis in epidermis; [12]): 6.55±2.38 pmole of 14C-Dextrose/100 mg
- change of lipogenesis in epidermis versus vehicle group (lipogenesis in epidermis; 10 mg/kg PO, (Q1DX5)×4 weeks, p<0.05): −33%
- activity at 10 mg/kg (lipogenesis in epidermis; Rattus norvegicus, 672 h, 10 mg/kg PO, (Q1DX5)×4 weeks, D25, read-out: lipogenesis in epidermis, percent of control group): 67%
- strength of topical cream that showed local irritation (skin [7]): 0.1%
- patients with severe acne reaching long-term remission (severe acne): 80%

Structure (SMILES): CC1=C(/C=C/C(C)=C/C=C/C(C)=C/C(=O)O)C(C)(C)CCC1 [tretinoin, all-trans retinoic acid]
- influence on the dermal lipogenese and sebum production [5]: Neither topical tretinoin nor topical isotretinoin have been found to have an influence
- strength of topical cream that showed local irritation (skin [7]): 0.05%
